Results taken from ChEMBL document CHEMBL1201862, “PubChem BioAssay data set” (2004).
Calls of active or inactive are those of the source.

Columns and labels:
[1] = viability loss in human Jurkat cells – cell-based, luminescence, cytotoxicity control for P. falciparum gametocyte viability project, dose response (AID 1117277); type: functional;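 also: potency reflects loss of cellular ATP meaning fewer viable cells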
[2] = target: T1, Streptokinase A (Streptococcus pyogenes serotype M1, UniProt P10520); experiment: viability-normalized secreted streptokinase activity reduction – plasminogen activation absorbance, OD405, dose response (AID 1914); type: functional, Streptococcus pyogenes M1 GAS;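 also: secreted streptokinase activity via plasminogen activation per viability signal from cell pellet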
T1 sequence (P10520 whole entry): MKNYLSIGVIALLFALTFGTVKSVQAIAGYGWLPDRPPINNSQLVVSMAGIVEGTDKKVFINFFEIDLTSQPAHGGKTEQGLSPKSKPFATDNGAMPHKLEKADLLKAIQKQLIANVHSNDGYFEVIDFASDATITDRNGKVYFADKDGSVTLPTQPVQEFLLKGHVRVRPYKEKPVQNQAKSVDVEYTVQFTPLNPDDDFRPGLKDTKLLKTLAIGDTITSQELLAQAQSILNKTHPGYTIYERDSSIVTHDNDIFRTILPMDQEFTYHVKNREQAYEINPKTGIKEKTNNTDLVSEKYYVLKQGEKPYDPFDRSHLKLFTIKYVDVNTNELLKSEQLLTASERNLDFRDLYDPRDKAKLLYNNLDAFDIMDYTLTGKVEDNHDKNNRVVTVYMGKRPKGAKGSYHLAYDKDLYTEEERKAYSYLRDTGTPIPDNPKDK

[3] = tested on: Streptococcus; experiment: Luminescence Microorganism-Based Dose Response Follow up to Identify Compounds Cytotoxic to Streptococcus. [Related pubchem assays: 1677 (Project Summary), 1915, 1914, 1902 (Retest at Dose), 1900 (Counter Screen), 1662 (Primary HTS)]; type: functional, organism-based
[4] = tested on: Streptococcus; experiment: GAS UMAA2166 growth inhibition – luminescence, BacTiterGlo, counter-screen for streptokinase expression inhibitor project, dose response (AID 1915); type: functional, organism-based;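 also: potency for reduction of bacterial viability or growth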
[5] = target: T1, Streptokinase A; experiment: Absorbance Microorganism-Based Dose Response Follow up to Identify Inhibitors of Streptokinase Expression. [Related pubchem assays: 1677 (Project Summary), 1915, 1914, 1902 (Retest at Dose), 1900 (Counter Screen), 1662 (Primary HTS)]; type: functional, Streptococcus pyogenes M1 GAS
[6] = Absorbance Microorganism-Based Dose Response Follow up to Identify Inhibitors of Streptokinase Expression. [Related pubchem assays: 1677 (Project Summary), 1915, 1914, 1902 (Retest at Dose), 1900 (Counter Screen), 1662 (Primary HTS)]
[7] = tested on: Streptococcus sp. 'group A'; experiment: Streptococcus pyogenes SK(-)GAS viability under kanamycin – luminescence, BacTiterGlo, confirmation, counter-screen for streptokinase expression inhibitor project, dose response (AID 1900); type: functional, organism-based
[8] = viability inhibitors of stage V gametocytes – luminescence, dose response (AID 1117278); type: functional, cell-based;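 also: gametocytes exposed to compound for 24 hours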
[9] = target: Cytochrome P450 2C9 (Homo sapiens, UniProt P11712)
Cytochrome P450 2C9, sequence (P11712 whole entry): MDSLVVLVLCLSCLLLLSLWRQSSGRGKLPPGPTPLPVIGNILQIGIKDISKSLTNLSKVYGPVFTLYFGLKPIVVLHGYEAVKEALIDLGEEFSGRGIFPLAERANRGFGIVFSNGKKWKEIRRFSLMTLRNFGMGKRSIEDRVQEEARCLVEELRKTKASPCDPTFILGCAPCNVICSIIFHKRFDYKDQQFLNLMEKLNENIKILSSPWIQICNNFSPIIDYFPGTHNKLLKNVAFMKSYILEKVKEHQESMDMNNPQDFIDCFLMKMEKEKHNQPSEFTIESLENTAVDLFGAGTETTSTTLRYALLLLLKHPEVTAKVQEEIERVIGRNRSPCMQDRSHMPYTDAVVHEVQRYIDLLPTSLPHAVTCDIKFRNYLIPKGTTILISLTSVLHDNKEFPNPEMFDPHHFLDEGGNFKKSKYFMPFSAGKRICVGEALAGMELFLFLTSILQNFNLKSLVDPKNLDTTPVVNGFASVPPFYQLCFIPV

[10] = A High Throughput Confirmatory Assay used to Identify Novel Compounds that Inhibit Mycobacterium Tuberculosis in the absence of Glycerol.; type: functional
[11] = microbe, parasite or virus in culture; type: functional; details: Mycobacterium tuberculosis
[12] = target: Large T antigen (Simian virus 40, UniProt P03070); type: functional, Betapolyomavirus macacae;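 also: Confirmatory-stage PubChem screen for compounds that inhibit SV40 T antigen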
Large T antigen, sequence (P03070 whole entry): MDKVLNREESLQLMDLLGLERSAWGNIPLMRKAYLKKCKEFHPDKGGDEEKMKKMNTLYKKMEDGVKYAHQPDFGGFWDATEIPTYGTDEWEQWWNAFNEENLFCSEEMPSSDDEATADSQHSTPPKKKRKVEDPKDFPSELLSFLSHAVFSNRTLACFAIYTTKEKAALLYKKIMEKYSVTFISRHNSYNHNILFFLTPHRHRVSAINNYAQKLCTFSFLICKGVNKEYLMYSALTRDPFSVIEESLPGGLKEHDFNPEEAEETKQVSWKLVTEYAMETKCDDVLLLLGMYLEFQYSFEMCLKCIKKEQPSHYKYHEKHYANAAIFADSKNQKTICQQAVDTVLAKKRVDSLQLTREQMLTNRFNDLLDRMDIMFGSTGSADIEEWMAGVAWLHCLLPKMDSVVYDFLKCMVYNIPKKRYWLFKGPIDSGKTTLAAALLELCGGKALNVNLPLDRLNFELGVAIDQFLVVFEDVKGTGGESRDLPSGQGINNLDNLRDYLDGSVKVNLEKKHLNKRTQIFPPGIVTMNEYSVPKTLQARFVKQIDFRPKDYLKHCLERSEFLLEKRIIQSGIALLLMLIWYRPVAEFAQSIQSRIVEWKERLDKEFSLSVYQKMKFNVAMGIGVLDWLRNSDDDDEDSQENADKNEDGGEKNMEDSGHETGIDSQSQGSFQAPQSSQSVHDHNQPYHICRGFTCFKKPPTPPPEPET

[13] = target: Aspartyl aminopeptidase (Plasmodium falciparum 3D7, UniProt Q8I2J3); experiment: Counterscreen for inhibitors of M1 and M17 aminopeptidases: QFRET-based biochemical high throughput dose response assay for inhibitors of the Plasmodium falciparum M18 Aspartyl Aminopeptidase (PFM18AAP). [Related PubChem assays: 1619 (Screening assay (M17LAP inhibitors).), 1445 (Screening assay (M1AAP inhibitors).)]
Aspartyl aminopeptidase, sequence (Q8I2J3 whole entry): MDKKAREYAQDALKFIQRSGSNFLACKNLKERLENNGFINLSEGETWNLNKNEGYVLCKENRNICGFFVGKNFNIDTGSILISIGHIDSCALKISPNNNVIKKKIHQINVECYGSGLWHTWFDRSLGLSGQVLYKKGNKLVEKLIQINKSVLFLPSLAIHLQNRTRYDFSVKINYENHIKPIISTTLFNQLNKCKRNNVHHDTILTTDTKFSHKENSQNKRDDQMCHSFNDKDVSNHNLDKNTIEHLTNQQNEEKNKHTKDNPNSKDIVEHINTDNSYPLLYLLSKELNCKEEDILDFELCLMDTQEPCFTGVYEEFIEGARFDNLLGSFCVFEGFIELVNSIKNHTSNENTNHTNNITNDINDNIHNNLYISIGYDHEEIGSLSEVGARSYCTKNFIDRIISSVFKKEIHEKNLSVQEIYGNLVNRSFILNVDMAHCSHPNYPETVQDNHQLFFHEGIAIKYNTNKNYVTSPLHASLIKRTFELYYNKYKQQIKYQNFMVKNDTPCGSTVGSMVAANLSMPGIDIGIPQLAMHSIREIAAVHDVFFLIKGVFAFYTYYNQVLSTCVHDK

[14] = target: T2, Leucine aminopeptidase (Plasmodium falciparum 3D7, UniProt Q8IL11); experiment: P. falciparum M17LAP inhibitors, primary screen, biochemical, fluorogenic H-Leu-NHMec substrate, 1536-well (AID 1619); type: functional
T2 sequence (Q8IL11 whole entry): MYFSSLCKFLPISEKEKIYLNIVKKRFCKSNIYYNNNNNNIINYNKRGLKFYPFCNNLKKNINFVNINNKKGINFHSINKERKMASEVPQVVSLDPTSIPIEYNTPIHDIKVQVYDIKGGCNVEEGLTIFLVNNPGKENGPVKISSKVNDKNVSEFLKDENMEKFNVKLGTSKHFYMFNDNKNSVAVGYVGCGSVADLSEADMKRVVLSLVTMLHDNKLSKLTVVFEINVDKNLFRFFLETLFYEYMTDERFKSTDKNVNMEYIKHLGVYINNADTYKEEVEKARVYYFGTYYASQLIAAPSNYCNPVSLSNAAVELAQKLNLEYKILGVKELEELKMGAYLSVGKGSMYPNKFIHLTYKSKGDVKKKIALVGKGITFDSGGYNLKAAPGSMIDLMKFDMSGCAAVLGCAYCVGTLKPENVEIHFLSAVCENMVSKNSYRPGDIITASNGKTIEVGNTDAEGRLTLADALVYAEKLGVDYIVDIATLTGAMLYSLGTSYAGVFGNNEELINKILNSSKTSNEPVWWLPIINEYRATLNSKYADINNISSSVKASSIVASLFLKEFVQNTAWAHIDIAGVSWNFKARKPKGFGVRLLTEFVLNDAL

[15] = target: Procathepsin L (Homo sapiens, UniProt P07711); experiment: CTSL1 protease inhibition – biochemical, QFRET, 1536-well, counter-screen for M1/M17 aminopeptidase inhibitor project, dose response (AID 2214)
Procathepsin L, sequence (P07711 whole entry): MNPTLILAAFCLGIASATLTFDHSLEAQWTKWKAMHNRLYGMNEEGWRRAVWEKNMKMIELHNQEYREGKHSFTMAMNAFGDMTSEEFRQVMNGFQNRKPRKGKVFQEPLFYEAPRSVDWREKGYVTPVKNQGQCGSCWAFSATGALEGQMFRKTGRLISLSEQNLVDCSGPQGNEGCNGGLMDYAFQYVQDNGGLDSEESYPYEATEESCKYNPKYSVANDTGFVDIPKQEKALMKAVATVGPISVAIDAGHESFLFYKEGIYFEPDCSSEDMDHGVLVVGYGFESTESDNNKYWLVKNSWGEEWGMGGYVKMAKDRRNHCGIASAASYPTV

[16] = M. tuberculosis H37Rv growth inhibitors, H37Rv strain (AID 1626); type: functional
[17] = HEK-293T viability loss after treatment – luminescence, T-cell screen hits, cytotoxicity control for TCR NF-kB inhibitor project, dose response (AID 489026); type: functional, cell-based;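 also: cells exposed to compound about 14 hours before the viability readout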
[18] = tested on: BJ; experiment: BJ-TERT fibroblast viability loss – cell-based, RAS-independent, luminescence, dose response (AID 1933); type: functional; details: Homo sapiens
[19] = tested on: BJ; experiment: cells; type: functional, cell-based; details: Homo sapiens
[20] = DRD fibroblast viability loss – cell-based, non-viral oncogenic, luminescence, dose response (AID 1934); type: functional; details: Homo sapiens
[21] = tested on: BJ; experiment: BJ-TERT-LT-ST fibroblast viability loss – cell-based, RAS-independent, luminescence, dose response (AID 1935); type: functional; details: Homo sapiens;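 also: BJ fibroblasts immortalized with TERT plus LT and ST oncogenes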
[22] = Luminescence-based dose response cell-based high throughput screening assay for cytotoxic compounds using the IEC-6 intestinal epithelial cell line. [Related pubchem assays: 1858 (Summary AID.), 1825 (Counterscreen.), 1907 (Confirmation screen.)]; type: functional

Question: With `COc1ccc(Sc2ccc(NC(=O)c3ccccc3Cl)cc2C#N)cc1` as the molecule, how does the IC50 [1] read?
Answer: > 9.26 µM (active)

Question: What about the EC50 [2] of the same molecule?
Answer: 4.98 µM (active)

Question: And the EC50 [3]?
Answer: > 500 µM (not active)

Question: And the EC50 [4]?
Answer: > 150 µM (not active)

Question: And the EC50 [5]?
Answer: 3.14 µM (active)

Question: And the EC50 [6]?
Answer: 2.27 µM (active)

Question: And the EC50 [7]?
Answer: 1.21 µM (active)

Question: And the IC50 [8]?
Answer: > 109 µM (inactive)

Question: What about the AC50 [9] of the same molecule?
Answer: 2.51 µM (inconclusive)

Question: Which results are given for `COc1ccccc1NC(=O)Nc1nc(CC(=O)N2CCN(c3ccccc3F)CC2)cs1`?
Answer: IC50 [10]: > 100 µM (active); CC50 [11]: > 40 µM (active)

Question: For `CCN(CC)c1ccc(NC(=O)CSc2nnc(N)s2)cc1C`, which IC50 [12] is on record?
Answer: 14.8 µM (active)

Question: And the IC50 [13]?
Answer: > 73.5 µM (not active)

Question: What about the IC50 [14] of the same molecule?
Answer: 5.57 µM (active)

Question: And the IC50 [15]?
Answer: > 59.6 µM (not active)

Question: What does the source list for `CCCCOC(=O)Nc1ccc(C)c(Cl)c1`?
Answer: IC50 [16]: > 100 µM (active); AC50 [9]: 11.2 µM (inconclusive)

Question: Which IC50 [17] does the source give for `COc1cc2c(c(OC)c1OC)-c1ccc(OC)c(=O)cc1[C@@H](N(C)CC#CCO)CC2` here?
Answer: > 80 µM (inactive)

Question: And the EC50 [18]?
Answer: 9.89 µM (active)

Question: What about the EC50 [19] of the same molecule?
Answer: 16.7 µM (inconclusive)

Question: And the EC50 [20]?
Answer: 1.45 µM (inconclusive)

Question: And the EC50 [21]?
Answer: 0.616 µM (inconclusive)

Question: And the IC50 [22]?
Answer: 0.226 µM (active)
